According to patent US4196205A, “3-Acetoxymethyl-7-(iminoacetamido)-cephalosporanic acid derivatives” (priority 1976, dated 1980):
≈ marks a conversion by molar mass, not a printed value. Where two headings read alike, the source gives them in different places.

How the values were obtained:
[1] = system: Proteus Mirabilis A 235; test: Experimental infection of Proteus Mirabilis in mice; assay type: in vivo
Method: Groups of 10 mice with an average weight of 22 g received intraperitoneally 0.5 ml of a 24 hour old culture in oxoid bouillon of Proteus Mirabilis A 235 diluted 1/4 with distilled water. The mice then received subcutaneously the compound of Examples 11 or 15 one hour and 5 and 24 hours after the infection and the results are reported in the following Table.

[2] = system: Klebsiella pneumoniae Exp. 52 145; test: MIC, dilution in liquid medium; assay type: cell-based; conditions: for MIC: Klebsiella pneumoniae
Method: (§1) The method used was a dilution of a liquid medium where a series of tubes received the same quantity of a sterile nutritive media and increasing doses of the test compounds were placed therein. Then each tube was seeded with a bacterial strain and was incubated for 24 to 48 hours at 37° C. in an oven. The increasing inhibition was determined by transillumination to determine the minimum inhibiting concentration (MIC in […]) and the results are reported in the following Tables.

[3] = system: Salmonella typhimurium 420; test: MIC, dilution in liquid medium; assay type: cell-based; conditions: Salmonella enterica, TYPHIMURIUM
Method: as §1

[4] = system: Pseudomonas 3 935 Exp. SG; test: MIC, dilution in liquid medium; assay type: cell-based; conditions: Pseudomonas, 3935EXP.SG, read-out: M.I.C.
Method: as §1

[5] = system: Streptococcus faecalis 99 F 74; test: MIC, dilution in liquid medium; assay type: cell-based; conditions: Enterococcus faecalis
Method: as §1

[6] = system: Escherichia Coli Exp. TO26 B6; test: MIC, dilution in liquid medium; assay type: cell-based; conditions: for MIC: Escherichia coli
Method: as §1

[7] = system: Klebsiella pneumoniae 2 536 Resistant Gentamicine; test: MIC, dilution in liquid medium; assay type: cell-based; conditions: Klebsiella pneumoniae, read-out: M.I.C.
Method: as §1

[8] = system: Providencia Du 48; test: MIC, dilution in liquid medium; assay type: cell-based; conditions: for MIC: Providencia
Method: as §1

[9] = system: Bacillus subtilis ATCC 6 633; test: MIC, dilution in liquid medium; assay type: cell-based; conditions: for MIC: Bacillus subtilis
Method: as §1

[10] = system: Streptococcus pyogenes A 561; test: MIC, dilution in liquid medium; assay type: cell-based; conditions: Streptococcus pyogenes
Method: as §1

[11] = system: Staphylococcus aureus UC 1 128 Pen-Resistant; test: MIC, dilution in liquid medium; assay type: cell-based; conditions: Staphylococcus aureus
Method: as §1

[12] = system: Escherichia Coli Sensible Tetracycline ATCC 9 637 = 1020; test: MIC, dilution in liquid medium; assay type: cell-based; conditions: Escherichia coli
Method: as §1

[13] = system: Serratia Resistant Gentamicine 2 532; test: MIC, dilution in liquid medium; assay type: cell-based
Method: as §1

[14] = system: Proteus vulgaris (indol+) A 232; test: MIC, dilution in liquid medium; assay type: cell-based; conditions: Proteus vulgaris, read-out: M.I.C.
Method: as §1

[15] = system: Streptococcus faecalis 5 432; test: MIC, dilution in liquid medium; assay type: cell-based
Method: as §1

[16] = system: Escherichia Coli Resistant Tetracycline ATCC 11 303 = UC 1261; test: MIC, dilution in liquid medium; assay type: cell-based; conditions: Escherichia coli
Method: as §1

[17] = system: Staphylococcus aureus exp. n° 54 146; test: MIC, dilution in liquid medium; assay type: cell-based; conditions: Staphylococcus aureus
Method: as §1

[18] = system: Escherichia Coli Resistant Gentamicine, Tobramycine R 55 123 D; test: MIC, dilution in liquid medium; assay type: cell-based; conditions: Escherichia coli
Method: as §1

[19] = system: Proteus mirabilis (indol-) A 235; test: MIC, dilution in liquid medium; assay type: cell-based; conditions: for MIC: Proteus mirabilis, read-out: M.I.C.
Method: as §1

[20] = system: Staphylococcus aureus ATCC 5 638 Pen-Sensible = UC 1061; test: MIC, dilution in liquid medium; assay type: cell-based
Method: as §1

[21] = system: Enterobacter cloacae 681; test: MIC, dilution in liquid medium; assay type: cell-based
Method: as §1

[22] = ATCC6, 24 h, 24 H, read-out: M.I.C.
[23] = A561, 24 h, 24 H, read-out: M.I.C.
[24] = A561, 48 h, 48 H, read-out: M.I.C.

CCO/N=C(/C(=O)NC1C(=O)N2C(C(=O)O)=C(COC(C)=O)CSC12)c1csc(N)n1 (stereo not drawn) [Example 15, anti isomer of 3-acetoxymethyl-7-[2-(2-amino-4-thiazolyl)-2-ethoxyiminoacetamido]-ceph-3-eme-4-carboxylic acid] was tested, and the “MORTALITY AFTER 6H55” value ([1]; 0.5 mg subcutaneously) was 1, the “MORTALITY AFTER 21H30” value ([1]; 0.5 mg subcutaneously) was 9 and the “Mice Alive on the 8th day” value ([1]; 0.5 mg subcutaneously) was 0/10. For the same molecule, the “MORTALITY AFTER 21H30” value ([1]; 1 mg subcutaneously) was 5, the “MORTALITY AFTER 23H10” value ([1]; 1 mg subcutaneously) was 1 and the “MORTALITY AFTER 23H30” value ([1]; 1 mg subcutaneously) was 1. The “MORTALITY AFTER 28H” value ([1]; 1 mg subcutaneously) was 2, the “MORTALITY AFTER 70H” value ([1]; 1 mg subcutaneously) was 1 and the “Mice Alive on the 8th day” value ([1]; 1 mg subcutaneously) was 0/10. It also gave a M.I.C. ([2]; 24 H) of 40 µg/mL, a M.I.C. ([2]; 48 H) of 40 µg/mL and an MIC ([2]; EXP.52145, 24 h, 24 H) of 20 µg/mL (≈ 42.6 µM). It also gave an MIC ([2]; EXP.52145, 48 h, 48 H) of 20 µg/mL (≈ 42.6 µM), an MIC ([3]; 24 h, read-out: M.I.C.) of 100 µg/mL (≈ 213 µM) and an MIC ([3]; 48 h, read-out: M.I.C.) of 100 µg/mL (≈ 213 µM). The MIC ([4]; 24 h) was > 100 µg/mL, the MIC ([4]; 48 h) was > 100 µg/mL and the MIC ([5]; 99F74, 24 h, read-out: M.I.C.) was > 100 µg/mL. The MIC ([5]; 99F74, 48 h, read-out: M.I.C.) was > 100 µg/mL, the M.I.C. ([6]; 48 H) was 40 µg/mL and the MIC ([7]; 24 h) was > 100 µg/mL. For the same molecule, the MIC ([7]; 48 h) was > 100 µg/mL, the M.I.C. ([8]; 24 H) was > 100 µg/mL and the MIC ([8]; DU48, 24 h, 24 H, read-out: M.I.C.) was 100 µg/mL (≈ 213 µM). For the same molecule, the MIC ([8]; DU48, 48 h, 48 H, read-out: M.I.C.) was > 100 µg/mL, the M.I.C. ([9]; 24 H) was 20 µg/mL and the MIC [9, 22] was 10 µg/mL (≈ 21.3 µM). For the same molecule, the MIC ([10]; A561, 24 h) was 1 µg/mL (≈ 2.13 µM), the MIC [10, 23] was 0.4 µg/mL (≈ 0.852 µM) and the MIC ([10]; A561, 48 h) was 1 µg/mL (≈ 2.13 µM). It also gave an MIC [10, 24] of 0.4 µg/mL (≈ 0.852 µM), an MIC ([11]; UC1, 24 h, 24 H) of 40 µg/mL (≈ 85.2 µM) and an MIC ([11]; UC1, 48 h, 48 H) of 40 µg/mL (≈ 85.2 µM). The MIC ([12]; ATCC9, 24 h, 24 H, read-out: M.I.C.) was > 100 µg/mL, the MIC ([12]; ATCC9, 48 h, 48 H, read-out: M.I.C.) was > 100 µg/mL and the MIC ([13]; 24 h, read-out: M.I.C.) was > 100 µg/mL. For the same molecule, the MIC ([13]; 48 h, read-out: M.I.C.) was > 100 µg/mL, the MIC ([14]; 24 h) was > 100 µg/mL and the MIC ([14]; 48 h) was > 100 µg/mL. For the same molecule, the MIC ([15]; Enterococcus faecalis, 5432, 24 h, read-out: M.I.C.) was > 100 µg/mL, the MIC ([15]; Enterococcus faecalis, 5432, 48 h, read-out: M.I.C.) was > 100 µg/mL and the MIC ([16]; 24 h) was 20 µg/mL (≈ 42.6 µM). For the same molecule, the MIC ([16]; 24 h, read-out: M.I.C.) was 10 µg/mL (≈ 21.3 µM), the MIC ([16]; 48 h) was 20 µg/mL (≈ 42.6 µM) and the MIC ([16]; 48 h, read-out: M.I.C.) was 10 µg/mL (≈ 21.3 µM). The MIC ([17]; 24 h) was 40 µg/mL (≈ 85.2 µM), the MIC ([17]; 48 h) was 40 µg/mL (≈ 85.2 µM) and the MIC ([18]; 24 h) was 40 µg/mL (≈ 85.2 µM). The MIC ([18]; 24 h, read-out: M.I.C.) was 100 µg/mL (≈ 213 µM), the MIC ([18]; 48 h) was 40 µg/mL (≈ 85.2 µM) and the MIC ([18]; 48 h, read-out: M.I.C.) was 100 µg/mL (≈ 213 µM). The M.I.C. ([19]; 24 H) was 5 µg/mL, the MIC ([19]; 24 h) was 10 µg/mL (≈ 21.3 µM) and the MIC ([20]; 24 h) was 20 µg/mL (≈ 42.6 µM). The MIC ([20]; 48 h) was 20 µg/mL (≈ 42.6 µM).

For CC(=O)OCC1=C(C(=O)O)N2C(=O)C(NC(=O)/C(=N\O)c3csc(N)n3)C2SC1 (stereo not drawn) [Example 28, syn isomer of 7-[2-(2-amino-4-thiazolyl)-2-hydroxyiminoacetamido]-3-acetoxymethyl-ceph-3-eme-4-carboxylic acid], the MIC ([2]; EXP.52145, 24 h, 24 H) was 0.05 µg/mL (≈ 0.113 µM), the MIC ([2]; EXP.52145, 48 h, 48 H) was 0.1 µg/mL (≈ 0.227 µM) and the MIC ([3]; 24 h, read-out: M.I.C.) was 0.1 µg/mL (≈ 0.227 µM). It also gave an MIC ([3]; 48 h) of 0.1 µg/mL (≈ 0.227 µM), an MIC ([5]; 99F74, 24 h, read-out: M.I.C.) of 10 µg/mL (≈ 22.7 µM) and an MIC ([5]; 99F74, 48 h, 48 H) of 40 µg/mL (≈ 90.6 µM). It also gave an MIC ([6]; 24 h) of 0.05 µg/mL (≈ 0.113 µM), an MIC ([6]; 48 h) of 0.1 µg/mL (≈ 0.227 µM) and an MIC ([7]; 24 h) of 0.2 µg/mL (≈ 0.453 µM). The MIC ([7]; 48 h) was 0.5 µg/mL (≈ 1.13 µM), the MIC ([8]; DU48, 24 h, 24 H) was 2 µg/mL (≈ 4.53 µM) and the MIC ([8]; DU48, 48 h, 48 H) was 2 µg/mL (≈ 4.53 µM). The MIC [9, 22] was 0.5 µg/mL (≈ 1.13 µM), the MIC ([9]; ATCC6, 48 h, 48 H) was 1 µg/mL (≈ 2.27 µM) and the MIC [10, 23] was 0.02 µg/mL (≈ 0.0453 µM). It also gave an MIC [10, 24] of 0.02 µg/mL (≈ 0.0453 µM), an MIC ([11]; UC1, 24 h, 24 H) of 1 µg/mL (≈ 2.27 µM) and an MIC ([11]; UC1, 48 h, 48 H) of 1 µg/mL (≈ 2.27 µM). The MIC ([12]; ATCC9, 24 h, 24 H) was 0.05 µg/mL (≈ 0.113 µM), the MIC ([12]; ATCC9, 48 h, 48 H) was 0.1 µg/mL (≈ 0.227 µM) and the MIC ([21]; Enterobacter cloacae, 681, 24 h) was 5 µg/mL (≈ 11.3 µM). It also gave an MIC ([21]; Enterobacter cloacae, 681, 48 h, read-out: M.I.C.) of 10 µg/mL (≈ 22.7 µM), an MIC ([13]; 24 h) of 5 µg/mL (≈ 11.3 µM) and an MIC ([13]; 48 h, read-out: M.I.C.) of 10 µg/mL (≈ 22.7 µM). For the same molecule, the MIC ([15]; Enterococcus faecalis, 5432, 24 h, 24 H) was 5 µg/mL (≈ 11.3 µM), the MIC ([15]; Enterococcus faecalis, 5432, 48 h, 48 H) was 5 µg/mL (≈ 11.3 µM) and the MIC ([16]; 24 h) was 0.1 µg/mL (≈ 0.227 µM). It also gave an MIC ([16]; 48 h) of 0.1 µg/mL (≈ 0.227 µM), an MIC ([17]; 24 h) of 1 µg/mL (≈ 2.27 µM) and an MIC ([17]; 48 h) of 1 µg/mL (≈ 2.27 µM). It also gave an MIC ([18]; 24 h, read-out: M.I.C.) of 0.2 µg/mL (≈ 0.453 µM), an MIC ([18]; 48 h, read-out: M.I.C.) of 0.2 µg/mL (≈ 0.453 µM) and an MIC ([19]; 24 h) of 0.1 µg/mL (≈ 0.227 µM). For the same molecule, the MIC ([19]; 48 h) was 0.2 µg/mL (≈ 0.453 µM), the MIC ([20]; 24 h, read-out: M.I.C.) was 0.5 µg/mL (≈ 1.13 µM) and the MIC ([20]; 48 h, read-out: M.I.C.) was 0.5 µg/mL (≈ 1.13 µM).
